# Assay results reported in patent US20110082329A1, “Modification of Sperm Motility and Its Storage Shelf Time” (priority 2008, published 2011).
# Assays:
# [1] = system: sea urchins (Lytechinus pictus) sperms; test: Sea urchin sperm motility by video microscopy / CASA; type: cell-based
# [2] = system: sea urchins (Lytechinus pictus) sperms; test: as above; type: cell-based; details: control = 100%
# Protocol: Sperms originating from ripe sea urchins (Lytechinus pictus) showing genetic and functional similarity to human and animal sperms are used (R. Felix: Reproduction 129, 251-262 (2005).
# (§1) Animals were washed by sequential immersion into 100 ml cold (approximately 5° C.) sperm storage buffer (SSB) pH 6.0. Used SSB composition: 50 mmol/L KCl, 5.0 mmol/L N-tris(hydroxymethyl)methyl-3-aminopropanesulphonic acid (TAPS), 425 mmol/L NaCl, 27 mmol/L MgCl2, 29 mmol/L MgSO4, 10 mmol/L CaCl2 and 2.4 mmol/L NaHCO3. Shedding of gametes was induced by intracoelomic injection of 2.0 ml cold 0.5 mol/L KCl through several sites on the peristomial membrane of the oral side. Sperm were collected by inverting male sea urchins over beakers containing approximately 100 ml cold MES sperm storage buffer (MSSB) pH 6.0. Used MSSB composition: 50 mmol/L KCl, 5.0 mM 2-[N-morpholino]ethanesulphonic acid (MES), 5.0 mmol/L TAPS, 425 mmol/L NaCl, 27 mmol/L MgCl2, 29 mmol/L MgSO4, 10 mmol/L CaCl2 and 2.4 mmol/L NaHCO3. A pool of sperm from several animals was made to minimize individual variations. Sperms were incubated in room temperature for 20 min. in 0.1-10 ml fractions diluted with 0.1-1000 ml activation buffer (ASW) pH 8.3. ASW composition: 50 mmol/L KCl, 5.0 mmol/L TAPS, 425 mmol/L NaCl, 27 mmol/L MgCl2, 29 mmol/L MgSO4, 10 mmol/L CaCl2, 2.4 mmol/L NaHCO3 and 1.0 mg/ml bovine serum albumin (BSA). The activation buffer contains the appropriate metal ions in a given concentration. […] Metal ions were used as Cl^− salts. Video microscopy was performed at room temperature (22° C.) using a Nikon Diaphot inverted microscope with 20× BM phase objective and 1× video adapter connected to a Dage CCD72 camera. […] The video signal was sent via a video time clock to a Panasonic VHS video recorder. Motility was recorded on multiple viewing fields for 15 sec per field until the recorded total sperm number reached 400. Video tapes were analyzed using CellTrack system. Measurements were carried out in triplicates. Sperm motility is expressed in %, where control values represent 100% (Bracho et al.: “A Method for Preparation, Storage and Activation of Large Populations of Immotile Sea Urchin Sperm”, BBRC 237, 59-62 (1997)).
# (§2) Measurements are carried out using CASA (Computer Assisted Sperm Analysis) method within 12 hours following sperm collection or ejaculation.
# [3] = system: human sperm from ejaculates of healthy donors; test: Human sperm motility by video microscopy / CASA; type: cell-based; details: control = 100%
# Protocol: as §1
# Sperms originating from ejaculates (2.0-5.0 ml) of healthy donors are diluted with 2.0-1000 ml cold MSSB buffer following liquidification and homogenized without modification of motility. From this point, sample handling and motility measurement is carried out as described in example#1.
# as §2
# sea urchin sperm = test: Sea urchin sperm motility time course: storage in high Ni^2+, then 100-fold dilution; type: cell-based, Lytechinus pictus; details: time point 0 = 100%
# Protocol: as §1
# a) Preparations of sea urchin sperm are produced as described in example 1. Motility measurements are carried out in predetermined time points as described in example#1 starting from time point 0. The activation buffer at time point 0 is supplemented with 20 mmol/L Ni^2+ as NiCl2. After 4 hours, sperm suspensions are diluted 100-fold with activation buffer, achieving 200 μmol/L final Ni^2+ concentration. Measurements of motility are carried out further. Sperm motility is expressed in %, where control values at time point 0 represent 100%.
Structure (SMILES),motility (%) ([2]; 1 μmol/L metal ion),motility (%) ([2]; 10 μmol/L metal ion),motility (%) ([2]; 100 μmol/L metal ion),motility (%) ([2]; 1 mmol/L metal ion),motility (%) ([2]; 10 mmol/L metal ion),motility (%) ([3]; 1 μmol/L metal ion),motility (%) ([3]; 10 μmol/L metal ion),motility (%) ([3]; 100 μmol/L metal ion),motility (%) ([3]; 1 mmol/L metal ion),motility (%) ([3]; 10 mmol/L metal ion),also measured
[Cd+2] [Cd^2+],–,–,–,–,–,–,–,–,–,–,"motility (%) ([1]; 3.5 μmol/L Cd^2+, control printed as 64.0): 49.1%"
[Co+2] [Co^2+],108.6,118.2,127.5,101.1,92.9,106.2,112.7,122.5,98.2,91.0,–
[Ni+2] [Ni^2+],111.4,127.3,132.0,98.6,85.2,105.7,126.9,129.5,93.2,88.9,"motility (%) (sea urchin sperm; time 0:20, 20 mmol/L Ni^2+): 99.0%; motility (%) (sea urchin sperm; time 1:00, 20 mmol/L Ni^2+): 85.7%; motility (%) (sea urchin sperm; time 2:00, 20 mmol/L Ni^2+): 86.8%; motility (%) (sea urchin sperm; time 3:00, 20 mmol/L Ni^2+): 81.6%; motility (%) (sea urchin sperm; time 4:00, 20 mmol/L Ni^2+): 76.3%; motility (%) (sea urchin sperm; time 4:20, after 100-fold dilution at 4 hours to 200 μmol/L Ni^2+): 102.6%; motility (%) (sea urchin sperm; time 5:00, after 100-fold dilution at 4 hours to 200 μmol/L Ni^2+): 119.0%; motility (%) (sea urchin sperm; time 6:00, after 100-fold dilution at 4 hours to 200 μmol/L Ni^2+): 123.5%; motility (%) (sea urchin sperm; time 7:00, after 100-fold dilution at 4 hours to 200 μmol/L Ni^2+): 123.0%; motility (%) (sea urchin sperm; time 8:00, after 100-fold dilution at 4 hours to 200 μmol/L Ni^2+): 120.6%"
[Zn+2] [Zn^2+],–,–,–,–,–,–,–,–,–,–,"motility (%) ([1]; 16 μmol/L Zn^2+, control printed as 64.3): 51.0%"
